Measurements from PMC11899342, “Novel Triazeneindole Antibiotics: Synthesis and Hit-to-Lead Optimization” (International Journal of Molecular Sciences, 2025).
In brackets after ≈: the same amount, converted by molar mass. Read-outs that look alike come from different tables or passages of the source.

Tests used:
MRSA clinical isolates = assay: MIC by broth microdilution against multidrug-resistant MRSA clinical isolates; assay type: cell-based, Staphylococcus aureus; conditions: for MIC Range Against 8 MRSA Strains: 8 multidrug-resistant MRSA clinical isolates, tested 0.125-1 mg/L; for MIC: Staphylococcus aureus, MRSA, read-out: MIC against 8 MRSA strains
Protocol: Clinical MRSA isolates with multidrug resistance were obtained from the collection of the Research Institute of Antimicrobial Chemotherapy, Smolensk State Medical Academy.
The MICs were determined using a broth microdilution method according to [42]. Briefly, serial dilutions of the tested compounds in 50 µL of Mueller Hinton broth (BD) were prepared in 96-well microplates. The antibiotics vancomycin and linezolid (Sigma-Aldrich, St. Louis, MO, USA) were used as a positive control. Bacterial suspensions of the tested MRSA strains were prepared in the Mueller Hinton broth (BD) with a concentration 1 × 10^6 CFU/mL, and then 50 µL aliquots were added to the prepared microplates. The final concentrations of the antibiotics in the wells were 1, 0.5, 0.25, and 0.125 mg/L, for the tested compounds, and 2 mg/L for vancomycin and linezolid. Negative control (lack of bacterial cells) and growth control (lack of compound) wells were included in all plates. The microplates were incubated at 37 °C for 18 h. The growth was assessed visually after incubation, and the MIC was assumed as the lowest compound concentration at which a noticeable growth of the microorganisms was inhibited (no visible growth). All experiments were conducted in triplicate.

[1] = system: human embryonic fibroblasts (HEFs); assay: MTT cytotoxicity on human embryonic fibroblasts; assay type: cell-based; conditions: 24 h, ND = non-toxic in tested concentrations (up to 50 mg/L); for IC50: Homo sapiens, Fibroblast
Protocol: (§1) The primary screening of 22 substances was performed on human embryonic fibroblasts (HEFs). […] The HepG2 cell line was obtained from the American Type Culture Collection (ATCC cat. # HB-8065). The primary HEF cells (normal human embryonic fibroblasts) were derived from human embryonic stem cells. The cells were cultured in DMEM/F12 (1:1) medium containing 10% fetal bovine serum (Invitrogen, Carlsbad, CA, USA) at 37 °C and 5% CO2, according to standard mammalian tissue culture protocols and sterile technique. […] The incubation time with the substance was 24 h for all substances and cell lines. Cell detachment by trypsin, centrifugation, and counting in a hemocytometer were performed 16 h before the addition of the substance. For correct counting of the HepG2 cells, the cell suspension was passed through a syringe needle to get rid of cell aggregates. The cells were placed in the wells of a 96-well plate. The number of cells was selected according to the properties of the cell line and the final optical density in the experiment. Fibroblasts and hepatocytes were used in the amount of 10 thousand cells per well in 100 μL of DMEM/F12 medium supplemented with 10% fetal bovine serum. The substances were added to 100 µL of medium in the wells so that the final concentrations were 50, 25, 12.5, 6.25, 3.125, and 1.62 mg/L. The final well volume was 200 µL. The medium containing fetal bovine serum, without added substances, was used as a negative control. After 24 h, excessive amounts of medium were discarded. A total of 30 µL of MTT solution (5 mg/mL in PBS) was added to each well. After the precipitation of formazan crystals (3 h incubation), they were dissolved using 100 μL of dimethyl sulfoxide. The optical density (OD) was measured at 570 nm using a microplate reader (Eppendorf). For every condition, the cell viabilities were assessed in at least three independent experiments for every cell culture. Cell survival was calculated using the following formula:(OD of treated cells − OD blank)/(OD of control cells − OD blank) × 100%, where OD blank represents the OD values in wells without cells but with the addition of the MTT and DMSO solutions. The results were presented in the form of cytotoxicity curves, and the graphs were also plotted in a Microsoft Excel program; the calculation of the IC50 half-maximal inhibition concentration values was performed in a GraphPad Prism 6.0 (GraphPad Software Inc., San Diego, CA, USA) program, based on the equations of the cytotoxicity curves.

[2] = Solubility in water by HPLC; assay type: physicochemical; conditions: for solubility at 5 min: water, kinetic from dmso stock
Protocol: The solubility of the compounds in water was assessed using HPLC analysis. Two 1.0 mg portions of the test compounds were dissolved in 10 μL of dimethyl sulfoxide; 1.0 mL of acetonitrile was added to one sample (standard), and 1.0 mL of water was added to the second sample (tested sample). Both vials were mixed in a shaker for 5 min, then centrifuged at 10,000 rpm for 5 min. The supernatants were collected and analyzed using Agilent 1290 Infinity (Agilent Technologies, Santa Clara, CA, USA) with a YMC-Triart C18 50 × 2.0 mm, 1.9 μm column. The concentration of the test compound in water was determined by comparing the peak areas of the standard (concentration 1.0 mg/mL) and the tested sample.

[3] = system: HepG2 human liver carcinoma cells; assay: MTT cytotoxicity (hepatotoxicity) on HepG2; assay type: cell-based; conditions: for IC50: Homo sapiens, HepG2, 24 h
Protocol: as §1

MRSA = assay: Selectivity index (average IC50 on eukaryotic cells / average MIC on MRSA); assay type: cell-based, Staphylococcus aureus; conditions: average IC50 on eukaryotic cells divided by average MIC on MRSA
Protocol: The selectivity index was calculated for each compound as the average IC50 on eukaryotic cells divided by the average MIC on MRSA (Table 2).

Caco-2 cells = assay: Caco-2 cell monolayer permeability; assay type: in vitro ADME, human
Protocol: The MultiScreen Caco-2 (ATCC cat. # HTB-37) test system (Millipore, St. Charles, MO, USA) was used to study the transport through a cell monolayer, according to the manufacturer’s instructions. Briefly, a study of transport from the apical membrane to the basolateral (A-B) area and in the opposite direction (B-A) was carried out on a 21-day culture of Caco-2 at a 1 µM concentration of the tested compound for 2 h. Monolayer integrity was verified by measuring electrical resistance (TEER) using a Millicell-ERS instrument. A TEER value of at least 3 KOhm/well was determined to be acceptable.

[4] = read-out: Solubility in water, mass concentration
[5] = read-out: Solubility in water, molar concentration
[6] = Caco-2, first value: A-B / apical

Compound	MIC Range Against 8 MRSA Strains (MRSA clinical isolates) [µg/mL]	IC50 [1] [µg/mL]	solubility at 5 min [2, 4] [µg/mL]	solubility at 5 min [2, 5] [µM]	also measured
CCOC(=O)c1[nH]c2ccccc2c1/N=N/N(C)Cc1ccccc1 [BX-SI003, Ethyl (E)-3-(3-benzyl-3-methyltriaz-1-en-1-yl)-1H-indole-2-carboxylate]	1 (≈ 2.97 µM)	3 (≈ 8.92 µM)	29.6	90	–
CCOC(=O)c1[nH]c2ccccc2c1/N=N/N1CCCN(C)CC1 [BX-SI005, Ethyl (E)-3-((4-methyl-1,4-diazepan-1-yl)diazenyl)-1H-indole-2-carboxylate]	1 (≈ 3.04 µM)	12 (≈ 36.4 µM)	70.2	210	–
CCOC(=O)c1[nH]c2ccccc2c1/N=N/N(C)CCN(C)C [BX-SI010, Ethyl (E)-3-(3-(2-(dimethylamino)ethyl)-3-methyltriaz-1-en-1-yl)-1H-indole-2-carboxylate]	1 (≈ 3.15 µM)	19 (≈ 59.9 µM)	475	1490	–
CCOC(=O)c1[nH]c2ccccc2c1/N=N/N1CCC(CCOC)CC1 [BX-SI016, Ethyl (E)-3-((4-(2-methoxyethyl)piperidin-1-yl)diazenyl)-1H-indole-2-carboxylate]	>1	34 (≈ 94.9 µM)	–	–	–
CCOC(=O)c1[nH]c2cc(F)ccc2c1/N=N/N1CCN(C)CC1 [BX-SI035, Ethyl ester ethyl (E)-6-fluoro-3-((4-methylpiperazin-1-yl)diazenyl)-1H-indole-2-carboxylate]	0.5 (≈ 1.5 µM)	20 (≈ 60 µM)	11.7	350	MIC (MRSA clinical isolates; Figure 6, MRSA strain 2): 0.5 µg/mL (≈ 1.5 µM); MIC (MRSA clinical isolates; Figure 6, MRSA strain 7): 0.5 µg/mL (≈ 1.5 µM); MIC (MRSA clinical isolates; Figure 6, MRSA strain 8): 0.5 µg/mL (≈ 1.5 µM); MIC (MRSA clinical isolates; Figure 6, MRSA strain 9): 0.5 µg/mL (≈ 1.5 µM); MIC (MRSA clinical isolates; Figure 6, MRSA strain 13): 0.5 µg/mL (≈ 1.5 µM); MIC (MRSA clinical isolates; Figure 6, MRSA strain 21): 0.5 µg/mL (≈ 1.5 µM); MIC (MRSA clinical isolates; Figure 6, MRSA strain 48): 0.5 µg/mL (≈ 1.5 µM); MIC (MRSA clinical isolates; Figure 6, MRSA strain 50): 0.5 µg/mL (≈ 1.5 µM); IC50 [3]: 21 µg/mL (≈ 63 µM); Selectivity Index (MRSA): 41
CCOC(=O)c1[nH]c2cc(F)ccc2c1/N=N/N1CCCN(C)CC1 [BX-SI039, Ethyl (E)-6-fluoro-3-((4-methyl-1,4-diazepan-1-yl)diazenyl)-1H-indole-2-carboxylate]	0.5 to 1	19 (≈ 54.7 µM)	33.1	90	MIC (MRSA clinical isolates; Figure 6, MRSA strain 2): 1 µg/mL (≈ 2.88 µM); MIC (MRSA clinical isolates; Figure 6, MRSA strain 7): 1 µg/mL (≈ 2.88 µM); MIC (MRSA clinical isolates; Figure 6, MRSA strain 8): 1 µg/mL (≈ 2.88 µM); MIC (MRSA clinical isolates; Figure 6, MRSA strain 9): 1 µg/mL (≈ 2.88 µM); MIC (MRSA clinical isolates; Figure 6, MRSA strain 13): 1 µg/mL (≈ 2.88 µM); MIC (MRSA clinical isolates; Figure 6, MRSA strain 21): 0.5 µg/mL (≈ 1.44 µM); MIC (MRSA clinical isolates; Figure 6, MRSA strain 48): 1 µg/mL (≈ 2.88 µM); MIC (MRSA clinical isolates; Figure 6, MRSA strain 50): 0.5 µg/mL (≈ 1.44 µM); IC50 [3]: 16 µg/mL (≈ 46.1 µM); Selectivity Index (MRSA): 20
CCOC(=O)c1[nH]c2cc(F)ccc2c1/N=N/N1CCOCC1 [BX-SI040, Ethyl (E)-6-fluoro-3-(morpholinodiazenyl)-1H-indole-2-carboxylate]	1 (≈ 3.12 µM)	12 (≈ 37.5 µM)	4.48	14	–
CCOC(=O)c1[nH]c2cc(F)ccc2c1/N=N/N(C)CCN(C)C [BX-SI044, Ethyl (E)-3-(3-(2-(dimethylamino)ethyl)-3-methyltriaz-1-en-1-yl)-6-fluoro-1H-indole-2-carboxylate]	0.25 to 1	–	–	–	IC50 HEF [1]: 19 µg/mL (≈ 56.7 µM); IC50 HepG2 ([3]; 24 h): 13 µg/mL (≈ 38.8 µM); Selectivity Index (MRSA): 27; Solubility in water, mass concentration [2]: 17.55 µg/mL (≈ 52.3 µM)
CCOC(=O)c1[nH]c2ccccc2c1/N=N/N1CCC(C)CC1 [BX-SI055, Ethyl (E)-3-((4-methylpiperidin-1-yl)diazenyl)-1H-indole-2-carboxylate]	>1	16 (≈ 50.9 µM)	1.22	4	–
CCOC(=O)c1[nH]c2ncccc2c1/N=N/N1CCN(C)CC1 [BX-SI057, Ethyl (E)-3-((4-methylpiperazin-1-yl)diazenyl)-1H-pyrrolo[2,3-b]pyridine-2-carboxylate]	0.5 to 1	3 (≈ 9.48 µM)	16.7	53	–
CCOC(=O)c1[nH]c2ncccc2c1/N=N/N1CCC(C)CC1 [BX-SI058, Ethyl (E)-3-((4-methylpiperidin-1-yl)diazenyl)-1H-pyrrolo[2,3-b]pyridine-2-carboxylate]	1 (≈ 3.17 µM)	12 (≈ 38 µM)	0.399	1	–
CC(C)NCC(O)COc1cccc2ccccc12 (stereo not drawn) [Propranolol, propranolol]	–	–	–	–	Papp A-B (Caco-2 cells; Caco-2, 1 µM, 2 h): 44.6 10^-6 sm/s; Mass balance (Caco-2 cells; [6]): 91.7%
CNC(=C[N+](=O)[O-])NCCSCc1ccc(CN(C)C)o1 [Ranitidine, ranitidine]	–	–	–	–	Papp A-B (Caco-2 cells; Caco-2, 1 µM, 2 h): 1.48 10^-6 sm/s; Mass balance (Caco-2 cells; [6]): 96%
rhodamine	–	–	–	–	Asymmetry index (Caco-2 cells; Caco-2): 3.20; Papp A-B (Caco-2 cells; Caco-2, 1 µM, 2 h): 1.14 10^-6 sm/s; Papp B-A (Caco-2 cells; Caco-2, 1 µM, 2 h): 3.65 10^-6 sm/s; Mass balance (Caco-2 cells; [6]): 92.1%; Mass balance (Caco-2 cells; Caco-2, second value: B-A / basolateral): 95.8%
